Data published in US11000033B2, “Ketone or oxime compound, and herbicide” (NISSAN CHEMICAL CORPORATION, priority 2014, dated 2021).

Key:
Type in all cases: in vivo
Monochoria vaginalis [1] = test: Test Example 1: herbicidal activity, application before weed generation in submerged conditions (symbol C); conditions: application herbicide amount 320 g/ha
Outline: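 In a flooded pot test with alluvial soil, the emulsion-formulated compound was diluted with water to a predetermined amount and applied to the floodwater immediately on the sowing day. Pots were held in a greenhouse at 25–30 °C for 3 weeks before each weed was rated.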

Monochoria vaginalis [2] = test: Test Example 2: herbicidal activity, application during weed generation in submerged conditions (symbol C); conditions: Table 23; application herbicide amount 320 g/ha; grade 0-5 by criteria of Test Example 1
Outline: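 Flooded-soil post-emergence test: emulsion of compound, water-diluted to target rate, applied to paddy water surface at 1–2 leaf stage of mixed-sown weeds (alluvial soil, 4 cm water, 25–30° C. greenhouse); visual rating 3 weeks after application.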

[3] = tested on: directly sowed rice plant; test: Test Example 3: effect on crop by foliage application, Wagner pot (symbol b); conditions: application herbicide amount 320 g/ha
Outline: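 Plants are raised from seed in flooded paddy conditions: water stands 0.1–0.5 cm over alluvial soil, and the pot is kept in a greenhouse at 25–30 °C. Species sown are barnyardgrass (E. crus-galli var. crus-galli), Leptochloa chinensis, Cyperus difformis and rice.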

Setaria viridis = test: Test Example 4: herbicidal effect by soil treatment (symbol G); conditions: application herbicide amount 320 g/ha
Outline: (§1)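 Seeds were sown in sterilized diluvial soil, covered with about 1.5 cm of soil, and the soil surface was sprayed with a water-diluted emulsion of the compound at a predetermined rate. Plants grew in a greenhouse at 25° C. to 30° C.; effects were scored visually 3 weeks after application.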

Avena fatua = test: Test Example 4: herbicidal effect by soil treatment (symbol I); conditions: application herbicide amount 320 g/ha
Outline: as §1

Chenopodium album = test: Test Example 4: herbicidal effect by soil treatment (symbol O); conditions: application herbicide amount 320 g/ha
Outline: as §1

Veronica persica = test: Test Example 4: herbicidal effect by soil treatment (symbol R); conditions: application herbicide amount 320 g/ha
Outline: as §1

beet = test: Test Example 4: effect on crop by soil treatment (symbol f); conditions: application herbicide amount 320 g/ha
Outline: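 Soil-treatment setup: crop and weed seeds were spot-sown into sterilized diluvial soil, then buried beneath approximately 1.5 cm of it, and the boxes were housed in a 25–30° C. greenhouse.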

[4] = tested on: Echinochloa crus-galli var. crus-galli; test: Test Example 5: herbicidal effect by foliage application, plastic box (symbol H); conditions: 320 g/ha, 3 weeks after application
Outline: (§2)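 Leaf-applied emulsion, water-diluted to a preset herbicide dose, on two-week-old seedlings raised in a 25° C. to 30° C. greenhouse; injury rated at 3 weeks using earlier criteria.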

Apera spica-venti = test: Test Example 5: herbicidal effect by foliage application, plastic box (symbol L); conditions: 320 g/ha, 3 weeks after application
Outline: as §2

Abutilon theophrasti = test: Test Example 5: herbicidal effect by foliage application, plastic box (symbol M); conditions: 320 g/ha, 3 weeks after application
Outline: as §2

corn = test: Test Example 5: effect on crop by foliage application, plastic box (symbol c); conditions: 320 g/ha, 3 weeks after application
Outline: (§3)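 Diluvial soil, sterilized and boxed (21 × 13 × 7 cm), received spot-sown seed covered by about 1.5 cm soil; plants were then greenhouse-grown at 25–30° C.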

soybean = test: Test Example 5: effect on crop by foliage application, plastic box (symbol d); conditions: 320 g/ha, 3 weeks after application
Outline: as §3

rapeseed = test: Test Example 5: effect on crop by foliage application, plastic box (symbol g); conditions: 320 g/ha, 3 weeks after application
Outline: as §3

SMILES	Herbicidal effect grade, C: Monochoria vaginalis (Monochoria vaginalis [1])	Herbicidal effect grade, C: Monochoria vaginalis (Monochoria vaginalis [2])	effect on crop b (directly sowed rice plant), grade 0-5 [3]	G: Setaria viridis, herbicidal effect grade (Setaria viridis)	I: Avena fatua, herbicidal effect grade (Avena fatua)	O: Chenopodium album, herbicidal effect grade (Chenopodium album)	R: Veronica persica, herbicidal effect grade (Veronica persica)	f: beet, effect on crop grade (beet)	H: Echinochloa crus-galli var. crus-galli, herbicidal effect grade [4]	L: Apera spica-venti, herbicidal effect grade (Apera spica-venti)	M: Abutilon theophrasti, herbicidal effect grade (Abutilon theophrasti)	c: corn, effect on crop grade (corn)	d: soybean, effect on crop grade (soybean)	g: rapeseed, effect on crop grade (rapeseed)
Cc1cc(C)c(C2=C(O)CC(CC(=O)C(C)(C)C)C2=O)c(C)c1 (stereo not shown) [2-022]	0 (Herbicidal ratio of 5% or lower (almost no effect))	0 (Herbicidal ratio of 5% or lower (almost no effect))	5 (Herbicidal ratio of 90% or more (almost completely withered))	4 (Herbicidal ratio of 70% or higher and lower than 90%)	0 (Herbicidal ratio of 5% or lower (almost no effect))	0 (Herbicidal ratio of 5% or lower (almost no effect))	0 (Herbicidal ratio of 5% or lower (almost no effect))	0 (Herbicidal ratio of 5% or lower (almost no effect))	1 (Herbicidal ratio of 5% or higher and lower than 20%)	2 (Herbicidal ratio of 20% or higher and lower than 40%)	0 (Herbicidal ratio of 5% or lower (almost no effect))	3 (Herbicidal ratio of 40% or higher and lower than 70%)	0 (Herbicidal ratio of 5% or lower (almost no effect))	1 (Herbicidal ratio of 5% or higher and lower than 20%)
CCC(C)C(=O)CC1CC(O)=C(c2c(C)cc(C)cc2C)C1=O (stereo not shown) [2-024]	0 (Herbicidal ratio of 5% or lower (almost no effect))	0 (Herbicidal ratio of 5% or lower (almost no effect))	5 (Herbicidal ratio of 90% or more (almost completely withered))	5 (Herbicidal ratio of 90% or more (almost completely withered))	0 (Herbicidal ratio of 5% or lower (almost no effect))	0 (Herbicidal ratio of 5% or lower (almost no effect))	0 (Herbicidal ratio of 5% or lower (almost no effect))	0 (Herbicidal ratio of 5% or lower (almost no effect))	5 (Herbicidal ratio of 90% or more (almost completely withered))	2 (Herbicidal ratio of 20% or higher and lower than 40%)	0 (Herbicidal ratio of 5% or lower (almost no effect))	3 (Herbicidal ratio of 40% or higher and lower than 70%)	0 (Herbicidal ratio of 5% or lower (almost no effect))	3 (Herbicidal ratio of 40% or higher and lower than 70%)
Cc1cc(C)c(C2=C(O)CC(CC(=O)C3CCCC3)C2=O)c(C)c1 (stereo not shown) [2-028]	0 (Herbicidal ratio of 5% or lower (almost no effect))	0 (Herbicidal ratio of 5% or lower (almost no effect))	5 (Herbicidal ratio of 90% or more (almost completely withered))	5 (Herbicidal ratio of 90% or more (almost completely withered))	0 (Herbicidal ratio of 5% or lower (almost no effect))	0 (Herbicidal ratio of 5% or lower (almost no effect))	0 (Herbicidal ratio of 5% or lower (almost no effect))	0 (Herbicidal ratio of 5% or lower (almost no effect))	5 (Herbicidal ratio of 90% or more (almost completely withered))	1 (Herbicidal ratio of 5% or higher and lower than 20%)	0 (Herbicidal ratio of 5% or lower (almost no effect))	4 (Herbicidal ratio of 70% or higher and lower than 90%)	0 (Herbicidal ratio of 5% or lower (almost no effect))	3 (Herbicidal ratio of 40% or higher and lower than 70%)
Cc1cc(C)c(C2=C(O)CC(CC(=O)C3CCCCC3)C2=O)c(C)c1 (stereo not shown) [2-030]	0 (Herbicidal ratio of 5% or lower (almost no effect))	0 (Herbicidal ratio of 5% or lower (almost no effect))	5 (Herbicidal ratio of 90% or more (almost completely withered))	5 (Herbicidal ratio of 90% or more (almost completely withered))	0 (Herbicidal ratio of 5% or lower (almost no effect))	0 (Herbicidal ratio of 5% or lower (almost no effect))	0 (Herbicidal ratio of 5% or lower (almost no effect))	0 (Herbicidal ratio of 5% or lower (almost no effect))	4 (Herbicidal ratio of 70% or higher and lower than 90%)	2 (Herbicidal ratio of 20% or higher and lower than 40%)	0 (Herbicidal ratio of 5% or lower (almost no effect))	2 (Herbicidal ratio of 20% or higher and lower than 40%)	0 (Herbicidal ratio of 5% or lower (almost no effect))	3 (Herbicidal ratio of 40% or higher and lower than 70%)
C=CC(=O)CC1CC(O)=C(c2c(C)cc(C)cc2C)C1=O (stereo not shown) [2-031]	2 (Herbicidal ratio of 20% or higher and lower than 40%)	0 (Herbicidal ratio of 5% or lower (almost no effect))	5 (Herbicidal ratio of 90% or more (almost completely withered))	5 (Herbicidal ratio of 90% or more (almost completely withered))	0 (Herbicidal ratio of 5% or lower (almost no effect))	0 (Herbicidal ratio of 5% or lower (almost no effect))	0 (Herbicidal ratio of 5% or lower (almost no effect))	0 (Herbicidal ratio of 5% or lower (almost no effect))	5 (Herbicidal ratio of 90% or more (almost completely withered))	4 (Herbicidal ratio of 70% or higher and lower than 90%)	0 (Herbicidal ratio of 5% or lower (almost no effect))	5 (Herbicidal ratio of 90% or more (almost completely withered))	0 (Herbicidal ratio of 5% or lower (almost no effect))	4 (Herbicidal ratio of 70% or higher and lower than 90%)
